In ChEMBL document CHEMBL1132204, “Design and synthesis of phosphinamide-based hydroxamic acids as inhibitors of matrix metalloproteinases” (J Med Chem, 1999):
pIC50: −log10 of the molar value.

Legend:
Stromelysin-1 = Stromelysin-1 (Homo sapiens, UniProt P08254); assay: Inhibition of human matrix metalloprotease-3
Interstitial collagenase = target: T1, Interstitial collagenase (Homo sapiens, UniProt P03956); assay: Inhibition of human matrix metalloprotease 1
T1 sequence (P03956 whole entry): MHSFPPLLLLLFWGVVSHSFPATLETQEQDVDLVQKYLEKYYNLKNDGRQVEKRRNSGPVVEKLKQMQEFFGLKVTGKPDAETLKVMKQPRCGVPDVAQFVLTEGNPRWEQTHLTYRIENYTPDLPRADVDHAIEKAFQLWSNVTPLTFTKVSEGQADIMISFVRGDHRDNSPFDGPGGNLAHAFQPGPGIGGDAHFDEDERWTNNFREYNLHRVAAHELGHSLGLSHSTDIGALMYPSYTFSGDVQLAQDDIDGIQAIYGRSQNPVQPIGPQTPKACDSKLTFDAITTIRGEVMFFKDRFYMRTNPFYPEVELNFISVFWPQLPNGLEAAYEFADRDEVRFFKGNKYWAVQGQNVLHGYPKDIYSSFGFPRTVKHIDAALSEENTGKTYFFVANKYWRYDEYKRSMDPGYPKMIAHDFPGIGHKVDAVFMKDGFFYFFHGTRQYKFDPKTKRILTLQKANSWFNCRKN

Matrilysin = target: T2, Matrilysin (Homo sapiens, UniProt P09237); assay: Inhibition of human matrix metalloprotease 7
T2 sequence (P09237 whole entry): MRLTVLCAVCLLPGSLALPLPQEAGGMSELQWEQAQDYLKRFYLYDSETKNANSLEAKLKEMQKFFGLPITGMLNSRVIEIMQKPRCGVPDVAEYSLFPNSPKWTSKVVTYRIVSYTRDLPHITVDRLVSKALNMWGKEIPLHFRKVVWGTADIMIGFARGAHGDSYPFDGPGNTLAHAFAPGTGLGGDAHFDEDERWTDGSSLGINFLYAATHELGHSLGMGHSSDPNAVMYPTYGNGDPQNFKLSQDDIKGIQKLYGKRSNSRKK

[1] = target: Matrix metalloproteinase-9 (Homo sapiens, UniProt P14780); assay: Inhibition of human matrix metalloprotease 9
[2] = target: 72 kDa type IV collagenase (Homo sapiens, UniProt P08253); assay: Inhibition of human matrix metalloprotease 2
Neutrophil collagenase = Neutrophil collagenase (Homo sapiens, UniProt P22894); assay: Inhibition of human Matrix metalloprotease-8
Collagenase 3 = Collagenase 3 (Rattus norvegicus, UniProt P23097)
Description: Inhibition of rat matrix metalloprotease 13

Sequence of Stromelysin-1 (P08254 whole entry): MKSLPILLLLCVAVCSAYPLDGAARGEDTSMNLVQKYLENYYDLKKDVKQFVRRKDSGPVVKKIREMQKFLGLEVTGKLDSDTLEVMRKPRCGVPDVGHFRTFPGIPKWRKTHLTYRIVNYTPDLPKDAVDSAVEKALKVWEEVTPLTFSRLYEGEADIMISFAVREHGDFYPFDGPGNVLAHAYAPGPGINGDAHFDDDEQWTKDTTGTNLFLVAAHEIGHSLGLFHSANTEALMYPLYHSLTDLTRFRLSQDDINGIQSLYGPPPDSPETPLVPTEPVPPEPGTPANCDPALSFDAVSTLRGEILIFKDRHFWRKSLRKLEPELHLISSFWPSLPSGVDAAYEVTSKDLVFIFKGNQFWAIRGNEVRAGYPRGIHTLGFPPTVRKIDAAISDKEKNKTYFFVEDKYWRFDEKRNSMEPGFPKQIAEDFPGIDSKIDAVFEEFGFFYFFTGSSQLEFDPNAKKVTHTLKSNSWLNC
Sequence of Matrix metalloproteinase-9 (P14780 whole entry): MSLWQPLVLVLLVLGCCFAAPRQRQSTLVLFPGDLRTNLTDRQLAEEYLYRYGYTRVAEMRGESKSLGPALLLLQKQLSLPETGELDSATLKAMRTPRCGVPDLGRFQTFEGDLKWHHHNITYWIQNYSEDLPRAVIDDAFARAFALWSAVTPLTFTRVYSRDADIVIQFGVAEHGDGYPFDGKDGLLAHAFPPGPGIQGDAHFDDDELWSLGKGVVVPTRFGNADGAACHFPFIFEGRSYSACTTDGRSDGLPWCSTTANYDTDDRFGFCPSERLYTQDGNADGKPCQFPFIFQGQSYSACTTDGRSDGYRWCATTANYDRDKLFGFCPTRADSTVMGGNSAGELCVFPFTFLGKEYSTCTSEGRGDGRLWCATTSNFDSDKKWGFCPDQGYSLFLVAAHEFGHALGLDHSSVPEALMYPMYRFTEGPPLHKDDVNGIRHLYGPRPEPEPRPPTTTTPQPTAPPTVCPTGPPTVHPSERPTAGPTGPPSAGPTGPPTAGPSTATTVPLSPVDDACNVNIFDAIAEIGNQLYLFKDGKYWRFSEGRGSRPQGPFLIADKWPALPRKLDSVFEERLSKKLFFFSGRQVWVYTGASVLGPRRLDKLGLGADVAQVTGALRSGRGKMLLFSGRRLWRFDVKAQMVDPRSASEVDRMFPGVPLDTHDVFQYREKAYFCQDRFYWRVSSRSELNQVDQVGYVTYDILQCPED
Sequence of Neutrophil collagenase (P22894 whole entry): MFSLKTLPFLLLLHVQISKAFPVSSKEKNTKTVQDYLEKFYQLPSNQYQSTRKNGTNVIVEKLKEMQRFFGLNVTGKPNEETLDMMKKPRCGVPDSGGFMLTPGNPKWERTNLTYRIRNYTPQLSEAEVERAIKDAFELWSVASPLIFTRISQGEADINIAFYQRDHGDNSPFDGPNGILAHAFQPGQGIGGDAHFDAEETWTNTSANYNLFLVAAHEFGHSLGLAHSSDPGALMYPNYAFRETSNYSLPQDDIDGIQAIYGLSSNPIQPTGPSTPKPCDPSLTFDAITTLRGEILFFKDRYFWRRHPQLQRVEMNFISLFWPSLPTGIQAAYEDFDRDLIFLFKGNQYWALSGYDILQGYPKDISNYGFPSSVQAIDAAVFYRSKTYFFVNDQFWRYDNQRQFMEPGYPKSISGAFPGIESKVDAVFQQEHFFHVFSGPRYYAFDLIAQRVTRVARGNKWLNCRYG
Sequence of 72 kDa type IV collagenase (P08253 whole entry): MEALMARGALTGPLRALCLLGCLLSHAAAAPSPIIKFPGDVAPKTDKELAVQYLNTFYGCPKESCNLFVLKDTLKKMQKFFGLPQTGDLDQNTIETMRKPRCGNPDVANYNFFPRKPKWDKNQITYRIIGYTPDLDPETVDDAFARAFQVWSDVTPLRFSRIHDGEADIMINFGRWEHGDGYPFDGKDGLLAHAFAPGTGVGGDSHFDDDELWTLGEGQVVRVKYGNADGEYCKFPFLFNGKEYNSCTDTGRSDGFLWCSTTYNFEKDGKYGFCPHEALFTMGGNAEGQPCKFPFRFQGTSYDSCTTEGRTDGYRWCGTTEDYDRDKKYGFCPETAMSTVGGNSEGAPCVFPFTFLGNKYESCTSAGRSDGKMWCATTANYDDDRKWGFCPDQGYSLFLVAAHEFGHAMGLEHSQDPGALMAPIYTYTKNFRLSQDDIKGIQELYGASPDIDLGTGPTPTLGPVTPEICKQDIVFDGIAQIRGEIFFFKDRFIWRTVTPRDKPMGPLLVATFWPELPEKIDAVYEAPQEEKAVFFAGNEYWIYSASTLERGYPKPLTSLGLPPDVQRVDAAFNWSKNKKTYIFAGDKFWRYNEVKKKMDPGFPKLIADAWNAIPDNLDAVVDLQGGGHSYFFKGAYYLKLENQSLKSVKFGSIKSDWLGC

Row | Compound | pIC50 (Stromelysin-1) | pIC50 (Interstitial collagenase) | pIC50 (Matrilysin) | pIC50 [1] | pIC50 [2] | pIC50 (Neutrophil collagenase) | pIC50 (Collagenase 3)
1 | C[P@@](=O)(c1ccccc1)N(CCc1ccccc1)CC(=O)NO | 6.15 | 6.28 |  |  |  |  | 
2 | CCCCCCN([C@H](C)C(=O)NO)[P@](C)(=O)c1ccccc1 | 5.80 | 5.89 |  |  |  |  | 
3 | CC[P@@](=O)(c1ccccc1)N(Cc1ccccc1)[C@H](C)C(=O)NO | 4.31 | 4.48 |  |  |  |  | 
4 | CC(C)C[C@H](C(=O)NO)N(Cc1ccccc1)[P@@](C)(=O)c1ccccc1 | 5.04 | 5.15 |  |  |  |  | 
5 | CCP(=O)(c1ccccc1)N(Cc1ccccc1)[C@H](C)C(=O)NO (stereo partly specified) | 6.15 | 6.22 |  |  |  |  | 
6 | C[C@H](C(=O)NO)N(Cc1ccccc1)[P@](C)(=O)c1ccccc1 | 7.17 | 6.92 | 5.73 | 7.49 |  |  | 
7 | O=C(CN(CCc1ccccc1)P(=O)(c1ccccc1)c1ccccc1)NO | 5.76 | 6.07 |  |  |  |  | 
8 | CC(C)C[C@H](C(=O)NO)N(Cc1ccccc1)P(C)(C)=O | 5.98 | 6.29 |  |  |  |  | 
9 | C[C@H](C(=O)NO)N(Cc1ccccc1)P(=O)(c1ccccc1)c1ccccc1 | 4.99 | 5.17 |  |  |  |  | 
10 | CC(C)C[C@H](C(=O)NO)N(Cc1ccccc1)[P@](C)(=O)c1ccccc1 | 7.61 | 7.69 | 6.05 | 7.69 | 7.88 | 8.28 | 8.13
11 | CC(C)C[C@@H](N[P@](C)(=O)c1ccccc1)C(=O)NO | 5.59 | 5.60 |  |  |  |  | 
12 | CC(C)C[C@@H](N[P@@](C)(=O)c1ccccc1)C(=O)NO | 3.88 | < 4.00 |  |  |  |  | 
